By IC50 is commonly meant the concentration needed to halve the response being measured.

The target in assay [1] is calcineurin (Homo sapiens, UniProt P62937+P63098+Q08209). Description: Inhibition of the phosphatase activity of calcineurin (scintillation-proximity-assay, in presence of Cyp18).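 Further: calcineurin dephosphorylation of a ³³P-labelled RII phosphopeptide, captured on streptavidin-coated wells and read by scintillation counting, with uninhibited enzyme activity taken as 100%.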
Description: The measurement was carried out by incubation of 10 μMol of the biotinylated phosphopeptide [sequence]pSer-Val-Ala-Ala-Glu (MW=2192.0) (RH-peptide) marked with ^33P in a sample buffer (40 mM Tris-HCl, pH 7.5, 100 mM NaCl, 6 mM MgCl2, 0.5 mM dithiothreitol, 1 mM. CaCl2, 0.1 mg/ml bovine serum albumin) in presence of 50 nM calmodulin and 1.32 nM calcineurin at 30° C. for 20 min in a 96 well micro titer plate (Costar, Bodenheim, Germany). The total volume of the assay/well was 100 μl. After this reaction time a 90 μl aliquot of the reaction mixture was transferred into a scintillation cavity coated with streptavidin and incubated for 20 min at 22° C. After a washing step the RII phosphopeptide-associated ^33P radioactivity was measured in a MicroBeta Top Counter (Wallac) and the enzyme activity was indicated as average value of three measurements±S.D. The uninhibited dephosphorylation activity has been set on 100%.
The target of assay [2] is recombinant human wild type Cyp18 (Cyp18 wt) (Homo sapiens, UniProt P62937). Put plainly: biochemical.
Sequence of recombinant human wild type Cyp18 (Cyp18 wt) (P62937 whole entry): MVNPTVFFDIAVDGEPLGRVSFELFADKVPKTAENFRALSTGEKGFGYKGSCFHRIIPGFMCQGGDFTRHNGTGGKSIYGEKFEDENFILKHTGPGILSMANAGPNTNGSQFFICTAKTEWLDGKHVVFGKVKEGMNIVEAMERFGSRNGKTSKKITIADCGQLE
Description: The determination was performed on a UV/Vis spectrometer at 10° C. cuvette temperature, whereby the device is operated at 390 nm in kinetic-mode (measurement buffer: 35 mM HEPES/NaOH pH 7.8 (AppliChem A1069)). 0.58 nM recombinant human wild type Cyp18 (Cyp18 wt), 2.33 nM bovine serum albumin (BSA) and 1 mg/ml chymotrypsin (Merck) solved in 35 mM HEPES/NaOH pH 7.8 as well as different concentration of each test substance, where appropriate, were in the cuvette. The reaction was started with a stock solution of Suc-Ala-Ala-Pro-Phe-4-nitroanilide (Bachem, 10 mg/ml DMSO) as substrate so that a final substrate concentration of 32 μM resulted. The extinction-time-curves were evaluated after expiry of the fast phase of the reaction i.e. after approximately 60 seconds according to a rate equation of a first-order reaction.

Turning to `CC[C@@H]1NC(=O)[C@H]([C@H](O)[C@H](C)Cc2nc3cc(C(=O)NCCN4CCN(C(=O)CCC(=O)O)CC4)ccc3[nH]2)N(C)C(=O)[C@H](C(C)C)N(C)C(=O)[C@H](CC(C)C)N(C)C(=O)[C@H](CC(C)C)N(C)C(=O)[C@@H](C)NC(=O)[C@H](C)NC(=O)[C@H](CC(C)C)N(C)C(=O)[C@H](C(C)C)NC(=O)[C@H](CC(C)C)N(C)C(=O)CN(C)C1=O` [Compound 54], the concentration for half-maximal inhibition (IC50) in assay [1] turned out to be 7.2 µM; in assay [2], 7.1 nM. In the case of `CC[C@@H]1NC(=O)[C@H]([C@H](O)[C@H](C)Cc2nc3cc(C(=O)N[C@@H](CS)C(=O)N[C@@H](C)C(N)=O)ccc3[nH]2)N(C)C(=O)[C@H](C(C)C)N(C)C(=O)[C@H](CC(C)C)N(C)C(=O)[C@H](CC(C)C)N(C)C(=O)[C@@H](C)NC(=O)[C@H](C)NC(=O)[C@H](CC(C)C)N(C)C(=O)[C@H](C(C)C)NC(=O)[C@H](CC(C)C)N(C)C(=O)CN(C)C1=O` [Compound 60], the IC50 in assay [2] was around 10 nM. Consider `CC[C@@H]1NC(=O)[C@H]([C@H](O)[C@H](C)Cc2nc3c(C(=O)O)cccc3n2C)N(C)C(=O)[C@H](C(C)C)N(C)C(=O)[C@H](CC(C)C)N(C)C(=O)[C@H](CC(C)C)N(C)C(=O)[C@@H](C)NC(=O)[C@H](C)NC(=O)[C@H](CC(C)C)N(C)C(=O)[C@H](C(C)C)NC(=O)[C@H](CC(C)C)N(C)C(=O)CN(C)C1=O` [Compound 56], for which the 50% inhibitory concentration (IC50) in assay [1] is above 10 µM; in assay [2], above 1000 nM. Regarding `CC[C@@H]1NC(=O)[C@H]([C@H](O)[C@H](C)Cc2nc3cc(C(=O)Oc4ccccc4C(=O)O)ccc3[nH]2)N(C)C(=O)[C@H](C(C)C)N(C)C(=O)[C@H](CC(C)C)N(C)C(=O)[C@H](CC(C)C)N(C)C(=O)[C@@H](C)NC(=O)[C@H](C)NC(=O)[C@H](CC(C)C)N(C)C(=O)[C@H](C(C)C)NC(=O)[C@H](CC(C)C)N(C)C(=O)CN(C)C1=O` [Compound 65], the IC50 in assay [1] is above 10 µM; in assay [2], 20.2 nM. The matching figures for `CC[C@@H]1NC(=O)[C@H]([C@H](O)[C@H](C)Cc2nc3cc(C(=O)NCCOCCOCCNC(=O)CCC(=O)O)ccc3[nH]2)N(C)C(=O)[C@H](C(C)C)N(C)C(=O)[C@H](CC(C)C)N(C)C(=O)[C@H](CC(C)C)N(C)C(=O)[C@@H](C)NC(=O)[C@H](C)NC(=O)[C@H](CC(C)C)N(C)C(=O)[C@H](C(C)C)NC(=O)[C@H](CC(C)C)N(C)C(=O)CN(C)C1=O` [Compound 68]: above 10 µM and 8.5 nM. With `CC[C@@H]1NC(=O)[C@H]([C@H](O)[C@H](C)Cc2nc3cc(C(=O)N[C@@H](CCC(=O)O)C(=O)N[C@@H](CCC(=O)O)C(N)=O)ccc3[nH]2)N(C)C(=O)[C@H](C(C)C)N(C)C(=O)[C@H](CC(C)C)N(C)C(=O)[C@H](CC(C)C)N(C)C(=O)[C@@H](C)NC(=O)[C@H](C)NC(=O)[C@H](CC(C)C)N(C)C(=O)[C@H](C(C)C)NC(=O)[C@H](CC(C)C)N(C)C(=O)CN(C)C1=O` [Compound 63], the IC50 in assay [2] was 5.1 nM.

`CC[C@@H]1NC(=O)[C@H]([C@H](O)[C@H](C)Cc2nc3cc(C(=O)NCCOCCOCCNC(=O)[C@@H]4C[C@H](C(=O)O)C[C@H](C(=O)O)C4)ccc3[nH]2)N(C)C(=O)[C@H](C(C)C)N(C)C(=O)[C@H](CC(C)C)N(C)C(=O)[C@H](CC(C)C)N(C)C(=O)[C@@H](C)NC(=O)[C@H](C)NC(=O)[C@H](CC(C)C)N(C)C(=O)[C@H](C(C)C)NC(=O)[C@H](CC(C)C)N(C)C(=O)CN(C)C1=O` [Compound 67]: the IC50 in assay [1] was above 10 µM; in assay [2] it was 8.4 nM. For `CC[C@@H]1NC(=O)[C@H]([C@H](O)[C@H](C)Cc2nc3nc(S)nc(S)c3[nH]2)N(C)C(=O)[C@H](C(C)C)N(C)C(=O)[C@H](CC(C)C)N(C)C(=O)[C@H](CC(C)C)N(C)C(=O)[C@@H](C)NC(=O)[C@H](C)NC(=O)[C@H](CC(C)C)N(C)C(=O)[C@H](C(C)C)NC(=O)[C@H](CC(C)C)N(C)C(=O)CN(C)C1=O` [Compound 16], in that order: 7.5 µM and 15.1 nM. For `CC[C@@H]1NC(=O)[C@H]([C@H](O)[C@H](C)Cc2nc3cc(C(=O)NCCN(C)C)ccc3[nH]2)N(C)C(=O)[C@H](C(C)C)N(C)C(=O)[C@H](CC(C)C)N(C)C(=O)[C@H](CC(C)C)N(C)C(=O)[C@@H](C)NC(=O)[C@H](C)NC(=O)[C@H](CC(C)C)N(C)C(=O)[C@H](C(C)C)NC(=O)[C@H](CC(C)C)N(C)C(=O)CN(C)C1=O` [Compound 52], in that order: above 10 µM and 8 nM. For `CC[C@@H]1NC(=O)[C@H]([C@H](O)[C@H](C)Cc2nc3cc(/C=C/C(=O)OC(C)(C)C)ccc3[nH]2)N(C)C(=O)[C@H](C(C)C)N(C)C(=O)[C@H](CC(C)C)N(C)C(=O)[C@H](CC(C)C)N(C)C(=O)[C@@H](C)NC(=O)[C@H](C)NC(=O)[C@H](CC(C)C)N(C)C(=O)[C@H](C(C)C)NC(=O)[C@H](CC(C)C)N(C)C(=O)CN(C)C1=O` [Compound 14], in that order: 3.2 µM and 36.4 nM. As for `CC[C@@H]1NC(=O)[C@H]([C@H](O)[C@H](C)Cc2nc3cc(C(=O)N[C@@H](CS)C(=O)N[C@@H](CS)C(N)=O)ccc3[nH]2)N(C)C(=O)[C@H](C(C)C)N(C)C(=O)[C@H](CC(C)C)N(C)C(=O)[C@H](CC(C)C)N(C)C(=O)[C@@H](C)NC(=O)[C@H](C)NC(=O)[C@H](CC(C)C)N(C)C(=O)[C@H](C(C)C)NC(=O)[C@H](CC(C)C)N(C)C(=O)CN(C)C1=O` [Compound 61], the IC50 in assay [2] is around 10 nM. Still for that read-out and setting: with `CC[C@@H]1NC(=O)[C@H]([C@H](O)[C@H](C)Cc2nc3cc(C(=O)O)ccc3o2)N(C)C(=O)[C@H](C(C)C)N(C)C(=O)[C@H](CC(C)C)N(C)C(=O)[C@H](CC(C)C)N(C)C(=O)[C@@H](C)NC(=O)[C@H](C)NC(=O)[C@H](CC(C)C)N(C)C(=O)[C@H](C(C)C)NC(=O)[C@H](CC(C)C)N(C)C(=O)CN(C)C1=O` [Compound 6] the figure was 700 nM.

Consider `CC[C@@H]1NC(=O)[C@H]([C@H](O)[C@H](C)Cc2nc3cc(C(=O)NCCN4CCOCC4)ccc3[nH]2)N(C)C(=O)[C@H](C(C)C)N(C)C(=O)[C@H](CC(C)C)N(C)C(=O)[C@H](CC(C)C)N(C)C(=O)[C@@H](C)NC(=O)[C@H](C)NC(=O)[C@H](CC(C)C)N(C)C(=O)[C@H](C(C)C)NC(=O)[C@H](CC(C)C)N(C)C(=O)CN(C)C1=O` [Compound 53], for which the figures for the IC50 in assay [1] and in assay [2] were 4.2 µM and 12.7 nM, respectively. For `CC[C@@H]1NC(=O)[C@H]([C@H](O)[C@H](C)CC2=N[C@@H]3CS[C@H](CCCCC(=O)O)[C@@H]3N2)N(C)C(=O)[C@H](C(C)C)N(C)C(=O)[C@H](CC(C)C)N(C)C(=O)[C@H](CC(C)C)N(C)C(=O)[C@@H](C)NC(=O)[C@H](C)NC(=O)[C@H](CC(C)C)N(C)C(=O)[C@H](C(C)C)NC(=O)[C@H](CC(C)C)N(C)C(=O)CN(C)C1=O` [Compound 4], in that order: above 10 µM and 264 nM.

With `CC[C@@H]1NC(=O)[C@H]([C@H](O)[C@H](C)Cc2nc3cc(C(=O)N[C@@H](CO)C(=O)N[C@@H](CCC(=O)O)C(N)=O)ccc3[nH]2)N(C)C(=O)[C@H](C(C)C)N(C)C(=O)[C@H](CC(C)C)N(C)C(=O)[C@H](CC(C)C)N(C)C(=O)[C@@H](C)NC(=O)[C@H](C)NC(=O)[C@H](CC(C)C)N(C)C(=O)[C@H](C(C)C)NC(=O)[C@H](CC(C)C)N(C)C(=O)CN(C)C1=O` [Compound 62], the 50% inhibitory concentration (IC50) in assay [2] was determined as 4.4 nM. `CC[C@@H]1NC(=O)[C@H]([C@H](O)[C@H](C)Cc2nc3cc(C(=O)NCCC(=O)NCCC(=O)NCCC(=O)NCCC(=O)NCCC(=O)NCCC(=O)O)ccc3[nH]2)N(C)C(=O)[C@H](C(C)C)N(C)C(=O)[C@H](CC(C)C)N(C)C(=O)[C@H](CC(C)C)N(C)C(=O)[C@@H](C)NC(=O)[C@H](C)NC(=O)[C@H](CC(C)C)N(C)C(=O)[C@H](C(C)C)NC(=O)[C@H](CC(C)C)N(C)C(=O)CN(C)C1=O` [Compound 51]: the IC50 was above 10 µM in assay [1] and 7.3 nM in assay [2]. For `CC[C@@H]1NC(=O)[C@H]([C@H](O)[C@H](C)Cc2nc3cc(S(=O)(=O)O)cc(F)c3[nH]2)N(C)C(=O)[C@H](C(C)C)N(C)C(=O)[C@H](CC(C)C)N(C)C(=O)[C@H](CC(C)C)N(C)C(=O)[C@@H](C)NC(=O)[C@H](C)NC(=O)[C@H](CC(C)C)N(C)C(=O)[C@H](C(C)C)NC(=O)[C@H](CC(C)C)N(C)C(=O)CN(C)C1=O` [Compound 48], in that order: above 10 µM and 8.7 nM. With `CC[C@@H]1NC(=O)[C@H]([C@H](O)[C@H](C)Cc2nc3cc(C(=O)N4CCCC4C(=O)N4CCC[C@H]4C(=O)N4CCCC4C(=O)N4CCC[C@H]4C(=O)N4CCCC4C(=O)N4CCC[C@H]4C(=O)O)ccc3[nH]2)N(C)C(=O)[C@H](C(C)C)N(C)C(=O)[C@H](CC(C)C)N(C)C(=O)[C@H](CC(C)C)N(C)C(=O)[C@@H](C)NC(=O)[C@H](C)NC(=O)[C@H](CC(C)C)N(C)C(=O)[C@H](C(C)C)NC(=O)[C@H](CC(C)C)N(C)C(=O)CN(C)C1=O` (some centres unmarked) [Compound 49], the results for the half-inhibitory concentration (IC50) in assay [1] and in assay [2] were above 10 µM and 30.9 nM, respectively. `CC[C@@H]1NC(=O)[C@H]([C@H](O)[C@H](C)Cc2nc3cccc(C(=O)O)c3n2C)N(C)C(=O)[C@H](C(C)C)N(C)C(=O)[C@H](CC(C)C)N(C)C(=O)[C@H](CC(C)C)N(C)C(=O)[C@@H](C)NC(=O)[C@H](C)NC(=O)[C@H](CC(C)C)N(C)C(=O)[C@H](C(C)C)NC(=O)[C@H](CC(C)C)N(C)C(=O)CN(C)C1=O` [Compound 55]: the IC50 was above 10 µM in assay [1] and 209 nM in assay [2].

As for `CC[C@@H]1NC(=O)[C@H]([C@H](O)[C@H](C)Cc2nc3cc(C(=O)NCCN4CCNCC4)ccc3[nH]2)N(C)C(=O)[C@H](C(C)C)N(C)C(=O)[C@H](CC(C)C)N(C)C(=O)[C@H](CC(C)C)N(C)C(=O)[C@@H](C)NC(=O)[C@H](C)NC(=O)[C@H](CC(C)C)N(C)C(=O)[C@H](C(C)C)NC(=O)[C@H](CC(C)C)N(C)C(=O)CN(C)C1=O` [Compound 64], the IC50 in assay [2] worked out at 17.2 nM. Turning to `CC[C@@H]1NC(=O)[C@H]([C@H](O)[C@H](C)Cc2nc3cc(C(=O)N[C@@H](CCC(=O)OCc4ccccc4)C(=O)N[C@@H](CCC(=O)OCc4ccccc4)C(N)=O)ccc3[nH]2)N(C)C(=O)[C@H](C(C)C)N(C)C(=O)[C@H](CC(C)C)N(C)C(=O)[C@H](CC(C)C)N(C)C(=O)[C@@H](C)NC(=O)[C@H](C)NC(=O)[C@H](CC(C)C)N(C)C(=O)[C@H](C(C)C)NC(=O)[C@H](CC(C)C)N(C)C(=O)CN(C)C1=O` [Compound 57], the IC50 in assay [2] was found to be 16.9 nM.

The record behind these values is patent publication US9453051B2, “Cyclosporin derivatives” (priority 2011, dated 2016).
